Assay results as given in patent US7109160B1, “Peptides containing the motif IGD and their use as cell migration modulators” (University of Dundee, priority 1997, dated 2006).
“Also recorded” adds a separate entry of the source.

Columns and labels:
[1] = tested on: human skin fibroblasts (SK319 and FSF44); experiment: Collagen gel assay with combinations of peptides (co-incubation); format: cell-based
Description: The collagen gel assay was performed in the presence of various combinations of the indicated peptides and the percentage of cells present within the gel matrix measured after a four-day incubation period. Data are expressed as mean ±SD obtained in three experiments. Panel A: combinations of the gelatin-binding domain (Gel-BD) and IGDS (SEQ ID NO 2); Panel B: combinations of IGDS (SEQ ID NO 2) and RGDS (SEQ ID NO 6); Panel C: combinations of IGDS (SEQ ID NO 2) and the cell-binding domain (Cell-BD).
(§1) Migration Assays. In the collagen gel assay, pre-formed 2 ml gels were overlaid with 1 ml of serum-free MEM (controls) or serum-free MEM containing the requisite concentration of effector molecule to give the desired final concentration. Trypsinised fibroblasts were suspended in serum-free MEM to give an inoculum containing 2×10^5 cells/ml and 1 ml of this was plated onto replicate control and test gels.
The possible mechanistic relationship between IGDS (SEQ ID NO 2) and the gelatin-binding domain in which it is contained was further examined by co-incubating cells with suboptimal concentrations of each.
Possible mechanistic interactions between IGDS (SEQ ID NO 2) and RGDS (SEQ ID NO 6) were studied in similar co-incubation experiments.

chick yolk sac membrane = experiment: Chick yolk sac membrane angiogenesis assay; format: in vivo; conditions: for Positive responses (%) / Positive responses (positive/total): assessed after 24 hr; for angiogenic response in the chick yolk sac membrane, in words: in vivo
From the text: Dried methylcellulose pellets containing the test samples and control pellets (lacking the test samples) were placed on the yolk sac membrane of 6-day chick embryos, as described in Materials and Methods in Example 1. The elicited reaction was checked after six hours and assessed after 24 hr by observation of living embryos with a stereomicroscope. […] After assessment at 24 hr, selected membranes were fixed in 2.5% EM grade glutaraldehyde in 0.2 M phosphate buffer, pH 7.4. These preparations were then stained with 1% toluidine blue and photographed using a Leica DM LB microscope. […] Bar=250 μm.
Chick yolk sac membrane angiogenesis assay. The assay was performed essentially as described by Gush et al (1990) J. Med. Engineer. Tech. 14, 205–209. Accordingly, four-day-old fertilised eggs were cracked in a tumbler, covered with a Petri dish and incubated at 37° C. Two days later dried methylcellulose pellets containing the test samples and control pellets (lacking the test samples) were placed on the yolk sac membrane. The elicited angiogenic reaction was assessed after 24 hr by observation of living embryos with a stereomicroscope. Selected membranes were fixed in 2.5% EM grade glutaraldehyde in 0.2 M phosphate buffer (pH 7.4), dissected, stained with 1% toluidine blue and mounted on glass slides for photomicroscopy.

[2] = tested on: human skin fibroblasts (SK319 and FSF44); experiment: Inhibitors of early and late aspects of IGDS activity (pre-incubation protocols, collagen gel assay); format: cell-based; set-up: key to Inhibitory activity: early events / Inhibitory activity: late events: yes(+); no(−); conditions: for effect on IGDS-induced cell migration (late events), in words / effect on initial IGDS signalling (early events), in words: Table 3; for inhibition at 10 µg/mL: Homo sapiens, Skin fibroblast
Description: as §1
The specific effects of potential inhibitory molecules on such early and late events were examined by using the following experimental protocol: (a) pre-incubating cells with IGDS (SEQ ID NO 2) and inhibitor and then assaying these treated cells in the absence of both IGDS (SEQ ID NO 2) and inhibitor (note: this protocol provides data concerning the effects of inhibitor on the early events mediating IGDS (SEQ ID NO 2) activity), (b) pre-incubating cells with neither IGDS (SEQ ID NO 2) nor inhibitor and assaying them in the presence of both (the effects of inhibitor on both early and late events), (c) pre-incubating cells with IGDS (SEQ ID NO 2) alone and then assaying them in the presence of inhibitor only (the effects of inhibitor on late events), and finally, (d) pre-incubating cells with inhibitor alone and then assaying them in the presence of IGDS (SEQ ID NO 2) to provide control information regarding possibly persistent effects of inhibitor which would confound data interpretation. Data presented in Table IA are concerned with the effects of the synthetic RGDS (SEQ ID NO 6) and RGES (SEQ ID NO 5).

[3] = tested on: human skin fibroblasts (SK319 and FSF44); experiment: Native collagen gel migration assay; format: cell-based; conditions: for effect on cell migration into native type I collagen gels: human dermal fibroblasts, 4-day incubation, FIG. 1
Description: Assays were performed as described in Materials and Methods in Example 1. Results are normalised by expressing them as “relative stimulation” of migration, this being calculated by dividing the percentage of cells in the gel matrix for each experimental point by the control value obtained in that particular experiment. Data are presented as the mean ±SD of five experiments. For clarity, the shaded area indicates the spread of standard deviations for data points not plotted with error bars. Upper panel: results obtained with the indicated synthetic peptides. Lower panel: results obtained with native fibronectin (FN), and its cell-binding (Cell-BD) and gelatin-binding (Gel-BD) domains.
(§2) Cells. Experiments were performed with two lines of human skin fibroblasts (SK319 and FSF44, between passage 10–18) shown to be free of mycoplasmal contamination by staining with Hoechst 33256. Identical results were obtained with both lines and these cells are consequently not individually identified in the Figures. Stock cultures were maintained in Eagle's Minimal Essential (MEM), as previously described^7.
as §1

[4] = tested on: human skin fibroblasts (SK319 and FSF44); experiment: Transmembrane migration assay (membranes coated with native type I collagen or gelatin); format: cell-based; conditions: FIG. 2; for effect on cell migration through gelatin-coated membranes: gelatin (heat-denatured type I collagen)-coated membranes; for effect on cell migration through membranes coated with native collagen: native type I collagen-coated membranes
Description: Assays were performed as described in Materials and Methods in Example 1. Results from five experiments are presented as mean ±SD. Shaded area indicates the spread of standard deviations for data points not plotted with error bars. Panel A: results obtained with IGDS (SEQ ID NO 2) and the gelatin-binding domain (Gel-BD) on membranes coated with native collagen and gelatin. Panel B: results obtained with RGDS (SEQ ID NO 6), native fibronectin (FN), and its cell-binding domain (Cell-BD).
as §2
Polycarbonate membranes used in the transmembrane assay were immersed in an aqueous solution containing 10 μg/ml of either native type I collagen or heat-denatured type I collagen (gelatin) overnight at 37° C. and then air-dried. Assays were performed as previously described^7.

[5] = tested on: human skin fibroblasts (SK319 and FSF44); experiment: Pre-incubation of cells with IGDS, subsequent migration in native collagen gel assay; format: cell-based
Description: Confluent cells on plastic tissue culture dishes were washed 3× with serum-free MEM (SF-MEM) and then incubated for various times with the indicated concentrations of IGDS (SEQ ID NO 2) in SF-MEM. They were then trypsinised and washed extensively by repeated (5×) cycles of centrifugation and resuspension in SF-MEM. The behaviour of these pre-incubated cells was assessed in the collagen gel assay in the absence of further IGDS (SEQ ID NO 2)(indicated as IGDS (SEQ ID NO 2) not in assay). […] Data were obtained from three experiments and are expressed as mean ±SD.
as §1

rat wound healing model = experiment: Rat wound healing model (subcutaneous porcine dermal collagen film implants); format: in vivo; conditions: 1 μg/ml in collagen film, implanted subcutaneously, 28 days, p < 0.01
From the text: In this experimental system, 1 cm^2 pieces of porcine dermal collagen films impregnated with either control medium or medium containing the indicated concentration of test substance were implanted subcutaneously into rats. The animals were sacrificed 28 days later and the removed collagen implants fixed and sectioned for image analysis.

[6] = peptide 10.0 μ molar, no pre-incubation, IGDS and peptide in assay (early and late events)
[7] = peptide 10.0 μ molar, pre-incubation with IGDS alone, peptide only in assay (late events)
[8] = peptide 10.0 μ molar, pre-incubation with IGDS and peptide, neither in assay (early events)
[9] = Genistein 10 μg/ml, PD98059 2.0 μM, PKA inhib 5 nM
[10] = Genistein 10 μg/ml, PD98059 2.0 μM, PKA inhib 5 nM, no pre-incubation, IGDS and inhibitor in assay (early and late events)
[11] = Genistein 10 μg/ml, PD98059 2.0 μM, PKA inhib 5 nM, pre-incubation with IGDS alone, inhibitor only in assay (late events)
[12] = Genistein 10 μg/ml, PD98059 2.0 μM, PKA inhib 5 nM, pre-incubation with IGDS and inhibitor, neither in assay (early events)

Compound: RGES: RGES synthetic peptide (Peptide related to IGES)
- effect on the migration stimulating activity of IGDS (co-incubation) ([1]; FIG. 3B, 3C): no effect
- Positive responses (%) (chick yolk sac membrane; 3000 ng/pellet): (10) %
- Positive responses (positive/total) (chick yolk sac membrane; 3000 ng/pellet): 1/10
- angiogenic response in the chick yolk sac membrane, in words (chick yolk sac membrane): inactive
- effect on IGDS-induced cell migration (late events), in words [2]: inactive
- effect on initial IGDS signalling (early events), in words [2]: inactive
- Inhibitory activity: early events ([2]; peptide 10.0 μ molar): early events: −
- Inhibitory activity: late events ([2]; peptide 10.0 μ molar): late events: −
- % inhibition [2, 6]: 1.2 ± 2.1%
- % inhibition [2, 7]: 0.3 ± 2.8%
- % inhibition [2, 8]: −1.0 ± 3.0%

Compound: Ile-Gly-Asp (IGD; listed as Homo sapiens)
- concentration at which significant bioactivity (migration stimulation) is first manifest ([3]; collagen gel assay, FIG. 1A): 10 to 100 µM
- effect on cell migration into native type I collagen gels [3]: stimulated cell migration

Compound: Ile-Gly-Asp-Ser (IGDS; listed as Homo sapiens)
- effect on cell migration through gelatin-coated membranes [4]: devoid of activity
- effect on cell migration through membranes coated with native collagen [4]: stimulated cell migration
- persistence of effect on cell migration after pre-incubation ([5]; assayed in absence of further IGDS, dependent on pre-incubation time and peptide concentration, FIG. 4): persistent
- elevated migratory behaviour still manifest following passages in vitro ([5]; pre-incubated cells, data not shown): 1–2 passages
- activity on cell migration when present on its own ([1]; 0.01 μM (10^7 fM), FIG. 3A): inactive
- effect upon cell migration of co-incubation with the gelatin-binding domain ([1]; suboptimal concentrations of each, FIG. 3A): additive effect
- concentration at which significant bioactivity (migration stimulation) is first manifest ([3]; collagen gel assay, FIG. 1A): 0.1 µM
- shape of dose-response ([3]; collagen gel assay, FIG. 1A): bell-shaped dose-response
- effect on cell migration into native type I collagen gels [3]: stimulated cell migration
- Positive responses (%) (chick yolk sac membrane; 5 ng/pellet): (50) %
- Positive responses (positive/total) (chick yolk sac membrane; 5 ng/pellet): 3/6
- Positive responses (%) (chick yolk sac membrane; 50 ng/pellet): (64) %
- Positive responses (positive/total) (chick yolk sac membrane; 50 ng/pellet): 7/11
- Positive responses (%) (chick yolk sac membrane; 250 ng/pellet): (77) %
- Positive responses (positive/total) (chick yolk sac membrane; 250 ng/pellet): 10/13
- Positive responses (%) (chick yolk sac membrane; 1000 ng/pellet): (64) %
- Positive responses (positive/total) (chick yolk sac membrane; 1000 ng/pellet): 9/14
- Positive responses (%) (chick yolk sac membrane; 3000 ng/pellet): (78) %
- Positive responses (positive/total) (chick yolk sac membrane; 3000 ng/pellet): 7/9
- angiogenic response in the chick yolk sac membrane, in words (chick yolk sac membrane): elicited an angiogenic response; also recorded: stimulates angiogenesis
- angiogenic response elicited by pellet (chick yolk sac membrane; pellet containing 1.0 μg, 6-day chick embryos, 24 hr, FIG. 7): positive angiogenic response
- Fibroblasts (% field) (rat wound healing model; control 8.3 ± 6.7): 18.2 ± 9.4 % field
- Vessels (per field) (rat wound healing model; control 15.3 ± 5.5): 26.7 ± 6.4 per field

Compound: O=c1c(-c2ccc(O)cc2)coc2cc(O)cc(O)c12 [Genistein]
- Inhibitory activity: early events [2, 9]: early events: +
- Inhibitory activity: late events [2, 9]: late events: −
- inhibition at 10 µg/mL [2, 10]: 94.1 ± 6.5%
- inhibition at 10 µg/mL [2, 11]: 0.9 ± 2.9%
- inhibition at 10 µg/mL [2, 12]: 96.7 ± 4%
- effect on IGDS-induced cell migration (late events), in words [2]: did not affect
- effect on initial IGDS signalling (early events), in words [2]: selectively blocked

Compound: Ile-Gly-Asp-Gin (IGDQ; listed as Homo sapiens)
- concentration at which significant bioactivity (migration stimulation) is first manifest ([3]; collagen gel assay, FIG. 1A): 0.1 µM
- effect on cell migration into native type I collagen gels [3]: stimulated cell migration

Compound: RGDS: structurally related RGDS tetrapeptide (synthetic peptide) (Peptide related to IGDS)
- effect on cell migration through gelatin-coated membranes [4]: inactive
- effect on cell migration through membranes coated with native collagen [4]: inactive
- concentrations required for inhibition of IGDS activity ([1]; FIG. 3B, 3C): pmolar
- effect on the migration stimulating activity of IGDS (co-incubation) ([1]; FIG. 3B, 3C): effectively inhibited
- effect on cell migration into native type I collagen gels [3]: devoid of migration stimulating activity
- Positive responses (%) (chick yolk sac membrane; 3000 ng/pellet): (9) %
- Positive responses (positive/total) (chick yolk sac membrane; 3000 ng/pellet): 1/11
- angiogenic response in the chick yolk sac membrane, in words (chick yolk sac membrane): inactive
- effect on IGDS-induced cell migration (late events), in words [2]: inhibited
- effect on initial IGDS signalling (early events), in words [2]: inhibited
- Inhibitory activity: early events ([2]; peptide 10.0 μ molar): early events: +
- Inhibitory activity: late events ([2]; peptide 10.0 μ molar): late events: +
- % inhibition [2, 6]: 92.3 ± 2.1%
- % inhibition [2, 7]: 96.5 ± 5.7%
- % inhibition [2, 8]: 96.2 ± 4.8%

Compound: COc1cccc(-c2cc(=O)c3ccccc3o2)c1N [PD98059]
- Inhibitory activity: early events [2, 9]: early events: +
- Inhibitory activity: late events [2, 9]: late events: +
- % inhibition [2, 10]: 99.8 ± 3.8%
- % inhibition [2, 11]: 39.4 ± 5.0%
- % inhibition [2, 12]: 90.5 ± 3.1%
- effect on IGDS-induced cell migration (late events), in words [2]: blocked
- effect on initial IGDS signalling (early events), in words [2]: blocked
